Laboratory results published in patent publication US20220324835A1 (Nurix Therapeutics, Inc., priority 2018, published 2022).
Structures can show the parent of a compound that is named as a salt.

Assays:
Cbl-b [1] = target: T1, Cbl-b (Homo sapiens, UniProt Q13191); assay: Cbl-b activity assay (Cbl-b inhibition assay), TR-FRET of Cbl-b interaction with UbcH5B-Ub; assay type: biochemical; conditions: assay buffer with 100 mM NaCl, 60 nM Src kinase; read-out: Cbl-b activity IC50
Outline: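 Compound-treated Cbl-b was incubated 1.5 h with Src kinase (60 nM final; 30 nM for asterisked values, which also used 50 mM instead of 100 mM NaCl), 1 mM ATP and 5 mM MgCl2. Binding to fluorescent Ub-loaded UbcH5B (C85K mutant) was then read by TR-FRET after 1 h more.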

T-cell [2] = assay: CD25 cell surface staining on T-cells stimulated with anti-CD3 antibody alone (Biological Example 2); assay type: cell-based, human; conditions: T-cell, fold change over baseline, primary human total T-cells, read-out: CD25 staining Anti-CD3 stimulation; for fold induction at 1 µM: 1 μM Cbl-b inhibitor; for fold induction at 8 µM: 8 μM Cbl-b inhibitor
T-cell [3] = assay: IL-2 secretion from T-cells co-stimulated with anti-CD3 and anti-CD28 antibody (Biological Example 2); assay type: cell-based, human; conditions: Homo sapiens, T-cell, fold change over baseline, primary human total T-cells, read-out: IL-2 secretion Anti-CD3/Anti-CD28 stimulation; for fold induction at 0.3 µM: 0.3 μM Cbl-b inhibitor; for fold induction at 1 µM: 1 μM Cbl-b inhibitor; for fold induction at 4 µM: 4 μM Cbl-b inhibitor
Outline: (§1)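 Values are fold-change over baseline: readings (IL-2 release, CD25 staining) from inhibitor-treated T-cells divided against untreated cells […]. No detailed procedure stated.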

Cbl-b [4] = target: T1, Cbl-b; assay: Cbl-b inhibition assay (Cbl-b activity assay, FRET, Biological Example 1; 100 mM NaCl, 60 nM Src kinase); assay type: biochemical; conditions: upper bound stated in text lists; read-out: IC50 values in the Cbl-b inhibition assay of Biological Example 1
Outline: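 Binding-based Cbl-b activity assay. Src-phosphorylated, N-terminally biotin-Avi-tagged Cbl-b recruits labelled UbcH5B-Ub, and proximity to streptavidin-terbium yields FRET.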

T-cell [5] = assay: CD25 cell surface staining on T-cells co-stimulated with anti-CD3 and anti-CD28 antibody (Biological Example 2); assay type: cell-based, human; conditions: Homo sapiens, T-cell, fold change over baseline, primary human total T-cells, read-out: CD25 staining Anti-CD3/Anti-CD28 stimulation; for fold induction at 0.3 µM: 0.3 μM Cbl-b inhibitor; for fold induction at 1 µM: 1 μM Cbl-b inhibitor; for fold induction at 4 µM: 4 μM Cbl-b inhibitor
Outline: as §1

T1 sequence (Q13191 36-427): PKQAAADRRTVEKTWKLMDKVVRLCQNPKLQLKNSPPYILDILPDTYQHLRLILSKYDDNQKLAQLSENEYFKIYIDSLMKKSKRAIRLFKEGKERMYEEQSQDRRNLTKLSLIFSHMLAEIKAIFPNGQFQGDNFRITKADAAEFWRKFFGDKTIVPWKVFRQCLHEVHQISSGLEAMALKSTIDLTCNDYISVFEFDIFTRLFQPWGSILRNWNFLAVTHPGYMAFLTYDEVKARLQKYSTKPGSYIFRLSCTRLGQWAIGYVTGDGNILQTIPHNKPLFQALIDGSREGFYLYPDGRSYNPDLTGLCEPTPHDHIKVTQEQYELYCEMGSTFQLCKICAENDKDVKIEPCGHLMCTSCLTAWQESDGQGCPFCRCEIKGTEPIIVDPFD

Row | SMILES | IC50 (Cbl-b [1]) [µM] | fold induction at 1 µM (T-cell [2]) | fold induction at 8 µM (T-cell [2]) | fold induction at 0.3 µM (T-cell [3]) | fold induction at 1 µM (T-cell [3]) | fold induction at 4 µM (T-cell [3]) | IC50 (Cbl-b [4]) [µM] | fold induction at 0.3 µM (T-cell [5]) | fold induction at 1 µM (T-cell [5]) | fold induction at 4 µM (T-cell [5])
1 | C[C@H](Cc1nncn1C)c1cccc(N2Cc3c(cc(C(=O)N4CC(O)C4)cc3C(F)(F)F)C2=O)c1 [Compound 276, (R)-6-(3-hydroxyazetidine-1-carbonyl)-2-(3-(1-(4-methyl-4H-1,2,4-triazol-3-yl)propan-2-yl)phenyl)-4-(trifluoromethyl)isoindolin-1-one] | < 0.1 | 0.801 to 1 | > 1 | 1.01 to 2.5 | 2.51 to 5 | > 7.5 | ≤ 0.1 | 1.01 to 1.3 | 1.01 to 1.3 | 1.31 to 1.5
2 | C[C@H](Cc1nncn1C)c1cccc(N2Cc3c(cc(C(=O)N4CC[C@H](O)C4)cc3C3CC3)C2=O)c1 [Compound 277, 4-cyclopropyl-6-((S)-3-hydroxypyrrolidine-1-carbonyl)-2-(3-((R)-1-(4-methyl-4H-1,2,4-triazol-3-yl)propan-2-yl)phenyl)isoindolin-1-one] | < 0.1 | 0.801 to 1 | > 1 | 1.01 to 2.5 | 2.51 to 5 | 2.51 to 5 | ≤ 0.1 | 1.01 to 1.3 | 1.01 to 1.3 | 1.31 to 1.5
3 | Cn1cnnc1CC1(c2cccc(N3Cc4c(cccc4C(F)(F)F)C3=O)c2)CC1 [Compound 299, 2-(3-(1-((4-methyl-4H-1,2,4-triazol-3-yl)methyl)cyclopropyl)phenyl)-4-(trifluoromethyl)isoindolin-1-one] | < 0.1 | > 1 | > 1 | 2.51 to 5 | 2.51 to 5 | 5 to 7.5 | ≤ 0.1 | < 1 | 1.01 to 1.3 | 1.01 to 1.3
4 | Cn1cnnc1CC(C)(C)c1cccc(N2Cc3c(cccc3C(F)(F)F)C2=O)c1 [Compound 300, 2-(3-(2-methyl-1-(4-methyl-4H-1,2,4-triazol-3-yl)propan-2-yl)phenyl)-4-(trifluoromethyl)isoindolin-1-one] | < 0.1 | 0.801 to 1 | > 1 | 1.01 to 2.5 | 2.51 to 5 | > 7.5 | ≤ 0.1 | 1.01 to 1.3 | 1.01 to 1.3 | 1.51 to 1.75
5 | Cn1cnnc1CC1(c2cccc(N3Cc4c(cccc4C(F)(F)F)C3=O)c2)COC1 [Compound 301, 2-[3-[3-[(4-methyl-1,2,4-triazol-3-yl)methyl]oxetan-3-yl]phenyl]-4-(trifluoromethyl)isoindolin-1-one] | < 0.1 | 0.801 to 1 | > 1 | 1.01 to 2.5 | 2.51 to 5 | > 7.5 | ≤ 0.1 | 1.01 to 1.3 | 1.01 to 1.3 | 1.31 to 1.5
6 | C[C@H](Sc1nncn1C)c1cccc(NC(=O)c2cc3cc(OCC(=O)NCCN)ccc3cn2)c1 [Compound 311, 6-[2-(2-aminoethylamino)-2-oxo-ethoxy]-N-[3-[(1S)-1-[(4-methyl-1,2,4-triazol-3-yl)sulfanyl]ethyl]phenyl]isoquinoline-3-carboxamide hydrochloride] | 0.1 to 0.3 | 0.601 to 0.8 | 0.601 to 0.8 | < 1 | < 1 | 1.01 to 2.5 | ≤ 0.3 | < 1 | < 1 | 1.01 to 1.3
7 | Cc1cnnn1C[C@@H](C)c1cccc(NC(=O)c2cccc(C(F)(F)F)n2)c1 [Compound 312a, (S)-N-(3-(1-(5-methyl-1H-1,2,3-triazol-1-yl)propan-2-yl)phenyl)-6-(trifluoromethyl)picolinamide] | 0.1 to 0.3 | 0.601 to 0.8 | 0.801 to 1 | 1.01 to 2.5 | 1.01 to 2.5 | 2.51 to 5 | ≤ 0.3 | < 1 | 1.01 to 1.3 | 1.01 to 1.3
8 | C[C@H](Cc1nncn1C)c1cccc(NC(=O)c2n[nH]c3c2CCC3)c1 [Compound 313, (R)-N-(3-(1-(4-Methyl-4H-1,2,4-triazol-3-yl)propan-2-yl)phenyl)-1,4,5,6-tetrahydrocyclopenta[c]pyrazole-3-carboxamide] | 0.1 to 0.3 | 0.601 to 0.8 | 0.801 to 1 | 1.01 to 2.5 | 1.01 to 2.5 | 2.51 to 5 | ≤ 0.3 | 1.01 to 1.3 | 1.01 to 1.3 | 1.01 to 1.3
9 | C[C@H](Cc1nncn1C)c1cccc(NC(=O)c2nc3c(C4CC4)cccc3[nH]2)c1 [Compound 319, 4-cyclopropyl-N-[3-[(1R)-1-methyl-2-(4-methyl-1,2,4-triazol-3-yl)ethyl]phenyl]-1H-benzimidazole-2-carboxamide] | 0.1 to 0.3 | 0.601 to 0.8 | 0.801 to 1 | 1.01 to 2.5 | 1.01 to 2.5 | 2.51 to 5 | ≤ 0.3 | 1.01 to 1.3 | 1.01 to 1.3 | 1.01 to 1.3
10 | C[C@H](Cc1nncn1C)c1cccc(NC(=O)c2cc(C(C)(C)O)cc(C(F)(F)F)n2)c1 [Compound 320, 4-(2-hydroxypropan-2-yl)-N-[3-[(2R)-1-(4-methyl-4H-1,2,4-triazol-3-yl)propan-2-yl]phenyl]-6-(trifluoromethyl)pyridine-2-carboxamide] | 0.1 to 0.3 | 0.801 to 1 | > 1 | 1.01 to 2.5 | 2.51 to 5 | 5 to 7.5 | ≤ 0.3 | 1.01 to 1.3 | 1.01 to 1.3 | 1.01 to 1.3
11 | C[C@H](Cc1nncn1C)c1cccc(NC(=O)c2cccc(C(C)(C)C)n2)c1 [Compound 321, (R)-6-(Tert-butyl)-N-(3-(1-(4-methyl-4H-1,2,4-triazol-3-yl)propan-2-yl)phenyl)picolinamide] | < 0.1 | 0.801 to 1 | > 1 | 1.01 to 2.5 | 2.51 to 5 | 2.51 to 5 | ≤ 0.1 | 1.01 to 1.3 | 1.01 to 1.3 | 1.01 to 1.3
12 | CC1CCc2c1n[nH]c2C(=O)Nc1cccc([C@H](C)Cc2nncn2C)c1 (stereo partly drawn) [Compound 323, 6-Methyl-N-(3-((R)-1-(4-methyl-4H-1,2,4-triazol-3-yl)propan-2-yl)phenyl)-2,4,5,6-tetrahydrocyclopenta[c]pyrazole-3-carboxamide] | 0.1 to 0.3 | 0.601 to 0.8 | > 1 | 1.01 to 2.5 | 2.51 to 5 | 5 to 7.5 | ≤ 0.3 | < 1 | < 1 | 1.01 to 1.3
13 | Cc1cc(C(=O)Nc2cccc([C@@H](C)Cc3nncn3C)c2)nc(C2CC2)n1 [Compound 325, (S)-2-Cyclopropyl-6-methyl-N-(3-(1-(4-methyl-4H-1,2,4-triazol-3-yl)propan-2-yl)phenyl)pyrimidine-4-carboxamide] | 0.1 to 0.3 | 0.801 to 1 | > 1 | 1.01 to 2.5 | 1.01 to 2.5 | 2.51 to 5 | ≤ 0.3 | 1.01 to 1.3 | 1.01 to 1.3 | 1.01 to 1.3
14 | Cc1cc(C(=O)Nc2cccc([C@H](C)Cc3nocc3C)c2)nc(C2CC2)n1 [Compound 330, (R)-2-cyclopropyl-6-methyl-N-(3-(1-(4-methylisoxazol-3-yl)propan-2-yl)phenyl)pyrimidine-4-carboxamide] | < 0.1 | 0.801 to 1 | > 1 | 1.01 to 2.5 | 2.51 to 5 | 5 to 7.5 | ≤ 0.1 | 1.01 to 1.3 | 1.01 to 1.3 | 1.01 to 1.3
